Series [1] can be described thus: Half-life was determined at pD 7.0 and 25 degree Centigrade. In kind it is ADME. Particulars: pH 7.
Series [2] can be described thus: The inhibitory activity against KDO 8-P synthase was determined. Also noted: species or system Escherichia coli.
A short description of series [3]: Half-life was determined at pD 7.0 and 37 degree Centigrade. In kind it is ADME. Particulars: pH 7.

The term half-life denotes the time needed for the level to fall by half in the phase considered. A low value points to fast loss. As a reminder, the Ki is a dissociation constant, usually derived from enzyme kinetics or from competition with a known ligand. Low readings indicate tighter binding, high ones weaker binding. As to `O=C(O)C1(OP(=O)(O)O)CC(O)C(O)C([C@H](O)COP(=O)(O)O)O1` (stereo partly drawn), the half-life in series [1] is 4.7 h; in series [3], 2.5 h. Besides, affinity in series [2] was put at a Ki of 35 µM.
